Where two headings read alike, the source gives them in different places.
Legend:
Test in all cases: KiNativ assay
Assay type in all cases: binding
Details in all cases: H929 live cell
MAP2K3 = MAP2K3 (Homo sapiens (Human), UniProt P46734)
Protocol: (§1) Biochemical IC50s of the compounds of the present disclosure against various kinases were measured in a KiNativ assay. Compounds were screened in duplicate at 10 μM in H929 live cell. IC50 was measured via Mass spectroscopy (MS).

CHK1 = CHK1 (Homo sapiens (Human), UniProt O14757)
Protocol: as §1

PHKg2 = PHKg2 (Homo sapiens (Human), UniProt P15735)
Sequence of PHKg2 (P15735 whole entry): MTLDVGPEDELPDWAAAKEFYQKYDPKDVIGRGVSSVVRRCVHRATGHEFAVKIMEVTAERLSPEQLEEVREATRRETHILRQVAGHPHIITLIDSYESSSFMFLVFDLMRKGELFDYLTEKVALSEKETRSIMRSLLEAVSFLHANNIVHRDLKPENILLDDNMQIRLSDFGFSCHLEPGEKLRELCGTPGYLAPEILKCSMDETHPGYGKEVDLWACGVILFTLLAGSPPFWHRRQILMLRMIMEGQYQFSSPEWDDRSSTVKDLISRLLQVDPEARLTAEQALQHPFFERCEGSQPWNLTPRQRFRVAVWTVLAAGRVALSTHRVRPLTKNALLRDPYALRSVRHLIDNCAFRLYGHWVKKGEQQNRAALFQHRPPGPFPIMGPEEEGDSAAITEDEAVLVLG
Protocol: as §1

OSR1 = OSR1 (Homo sapiens (Human), UniProt O95747)
Protocol: as §1

PIK3C3 = PIK3C3 (Homo sapiens (Human), UniProt Q8NEB9)
Protocol: as §1

IRAK1 = IRAK1 (Homo sapiens (Human), UniProt P51617)
Protocol: as §1

ILK = ILK (Homo sapiens (Human), UniProt Q13418)
Protocol: as §1

LOK = LOK (Homo sapiens (Human), UniProt O94804)
Protocol: as §1

MAP2K1 = MAP2K1 (Homo sapiens (Human), UniProt Q02750)
Protocol: as §1

TYK2 domain2 = TYK2 domain2 (Homo sapiens (Human), UniProt P29597)
Protocol: as §1

PI4KA, PI4KAP2 = tested on: PI4KA, PI4KAP2
Protocol: as §1

JNK1, JNK2, JNK3 = tested on: JNK1, JNK2, JNK3
Protocol: as §1

MAST3 = MAST3 (Homo sapiens (Human), UniProt O60307)
Protocol: as §1

EphB2 = EphB2 (Homo sapiens (Human), UniProt P29323)
Protocol: as §1

KHS1 = KHS1 (Homo sapiens (Human), UniProt Q9Y4K4)
Sequence of KHS1 (Q9Y4K4 whole entry): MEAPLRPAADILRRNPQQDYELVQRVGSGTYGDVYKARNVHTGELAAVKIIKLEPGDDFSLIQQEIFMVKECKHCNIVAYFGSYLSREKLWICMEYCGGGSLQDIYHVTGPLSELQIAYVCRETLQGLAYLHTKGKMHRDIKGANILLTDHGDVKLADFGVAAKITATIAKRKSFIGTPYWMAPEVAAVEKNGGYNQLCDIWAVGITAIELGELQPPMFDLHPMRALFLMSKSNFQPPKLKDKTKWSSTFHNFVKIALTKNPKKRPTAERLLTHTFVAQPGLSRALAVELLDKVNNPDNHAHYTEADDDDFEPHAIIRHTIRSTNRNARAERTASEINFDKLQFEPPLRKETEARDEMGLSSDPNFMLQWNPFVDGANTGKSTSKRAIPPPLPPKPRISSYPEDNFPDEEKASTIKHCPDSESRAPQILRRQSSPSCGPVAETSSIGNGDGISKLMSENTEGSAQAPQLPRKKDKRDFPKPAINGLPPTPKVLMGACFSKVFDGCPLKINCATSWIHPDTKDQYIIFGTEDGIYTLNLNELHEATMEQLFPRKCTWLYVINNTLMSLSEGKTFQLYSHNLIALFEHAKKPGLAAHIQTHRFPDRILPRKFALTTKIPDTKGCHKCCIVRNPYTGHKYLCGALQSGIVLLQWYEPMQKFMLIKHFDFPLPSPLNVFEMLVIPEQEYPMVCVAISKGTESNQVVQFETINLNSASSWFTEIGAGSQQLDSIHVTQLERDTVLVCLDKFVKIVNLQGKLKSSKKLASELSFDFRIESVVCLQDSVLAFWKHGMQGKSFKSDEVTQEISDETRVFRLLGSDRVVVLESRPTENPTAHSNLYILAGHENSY
Protocol: as §1

MARK4 = MARK4 (Homo sapiens (Human), UniProt Q96L34)
Protocol: as §1

MAPKAPK2, MAPKAPK3 = tested on: MAPKAPK2, MAPKAPK3
Protocol: as §1

JAK1 domain2 = JAK1 domain2 (Homo sapiens (Human), UniProt P23458)
Protocol: as §1

ATR = ATR (Homo sapiens (Human), UniProt Q13535)
Protocol: as §1

PI4KB = PI4KB (Homo sapiens (Human), UniProt Q9UBF8)
Sequence of PI4KB (Q9UBF8 whole entry): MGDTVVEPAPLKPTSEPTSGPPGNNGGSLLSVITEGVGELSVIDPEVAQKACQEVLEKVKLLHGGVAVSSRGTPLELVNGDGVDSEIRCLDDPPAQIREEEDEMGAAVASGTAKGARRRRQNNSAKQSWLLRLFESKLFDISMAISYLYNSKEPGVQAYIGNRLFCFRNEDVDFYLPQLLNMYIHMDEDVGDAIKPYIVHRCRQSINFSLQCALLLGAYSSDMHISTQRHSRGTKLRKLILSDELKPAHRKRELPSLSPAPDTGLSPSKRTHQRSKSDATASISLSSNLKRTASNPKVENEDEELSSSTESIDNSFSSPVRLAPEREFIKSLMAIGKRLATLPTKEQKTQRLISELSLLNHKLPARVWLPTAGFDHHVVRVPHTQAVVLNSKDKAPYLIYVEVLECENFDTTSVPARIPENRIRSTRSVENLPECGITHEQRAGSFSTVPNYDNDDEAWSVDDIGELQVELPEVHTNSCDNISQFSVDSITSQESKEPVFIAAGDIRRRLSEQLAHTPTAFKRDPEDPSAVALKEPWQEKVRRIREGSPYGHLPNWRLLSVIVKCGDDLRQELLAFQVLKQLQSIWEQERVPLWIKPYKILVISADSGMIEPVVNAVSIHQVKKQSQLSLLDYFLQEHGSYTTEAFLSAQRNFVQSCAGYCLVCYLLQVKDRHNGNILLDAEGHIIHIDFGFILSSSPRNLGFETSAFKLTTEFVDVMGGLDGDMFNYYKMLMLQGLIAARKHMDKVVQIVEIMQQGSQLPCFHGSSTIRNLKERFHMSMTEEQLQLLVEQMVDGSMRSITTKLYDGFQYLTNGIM
Protocol: as §1

NDR2 = NDR2 (Homo sapiens (Human), UniProt Q9Y2H1)
Sequence of NDR2 (Q9Y2H1 whole entry): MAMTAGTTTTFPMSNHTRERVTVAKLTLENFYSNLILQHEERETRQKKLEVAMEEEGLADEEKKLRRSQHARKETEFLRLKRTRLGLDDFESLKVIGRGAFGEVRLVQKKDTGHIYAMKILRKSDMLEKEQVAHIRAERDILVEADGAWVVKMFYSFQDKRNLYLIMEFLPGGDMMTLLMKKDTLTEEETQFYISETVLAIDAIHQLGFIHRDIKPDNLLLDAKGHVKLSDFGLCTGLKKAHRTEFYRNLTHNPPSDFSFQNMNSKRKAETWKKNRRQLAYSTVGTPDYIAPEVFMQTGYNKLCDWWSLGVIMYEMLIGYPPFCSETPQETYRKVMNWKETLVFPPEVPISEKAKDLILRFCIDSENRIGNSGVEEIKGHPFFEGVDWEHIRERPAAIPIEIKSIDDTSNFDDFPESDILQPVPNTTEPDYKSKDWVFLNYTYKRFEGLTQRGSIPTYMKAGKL
Protocol: as §1

CHK2 = CHK2 (Homo sapiens (Human), UniProt O96017)
Protocol: as §1

NEK8 = NEK8 (Homo sapiens (Human), UniProt Q86SG6)
Protocol: as §1

NDR1 = NDR1 (Homo sapiens (Human), UniProt Q15208)
Protocol: as §1

MAP2K7 = MAP2K7 (Homo sapiens (Human), UniProt O14733)
Protocol: as §1

NEK1 = NEK1 (Homo sapiens (Human), UniProt Q96PY6)
Sequence of NEK1 (Q96PY6 whole entry): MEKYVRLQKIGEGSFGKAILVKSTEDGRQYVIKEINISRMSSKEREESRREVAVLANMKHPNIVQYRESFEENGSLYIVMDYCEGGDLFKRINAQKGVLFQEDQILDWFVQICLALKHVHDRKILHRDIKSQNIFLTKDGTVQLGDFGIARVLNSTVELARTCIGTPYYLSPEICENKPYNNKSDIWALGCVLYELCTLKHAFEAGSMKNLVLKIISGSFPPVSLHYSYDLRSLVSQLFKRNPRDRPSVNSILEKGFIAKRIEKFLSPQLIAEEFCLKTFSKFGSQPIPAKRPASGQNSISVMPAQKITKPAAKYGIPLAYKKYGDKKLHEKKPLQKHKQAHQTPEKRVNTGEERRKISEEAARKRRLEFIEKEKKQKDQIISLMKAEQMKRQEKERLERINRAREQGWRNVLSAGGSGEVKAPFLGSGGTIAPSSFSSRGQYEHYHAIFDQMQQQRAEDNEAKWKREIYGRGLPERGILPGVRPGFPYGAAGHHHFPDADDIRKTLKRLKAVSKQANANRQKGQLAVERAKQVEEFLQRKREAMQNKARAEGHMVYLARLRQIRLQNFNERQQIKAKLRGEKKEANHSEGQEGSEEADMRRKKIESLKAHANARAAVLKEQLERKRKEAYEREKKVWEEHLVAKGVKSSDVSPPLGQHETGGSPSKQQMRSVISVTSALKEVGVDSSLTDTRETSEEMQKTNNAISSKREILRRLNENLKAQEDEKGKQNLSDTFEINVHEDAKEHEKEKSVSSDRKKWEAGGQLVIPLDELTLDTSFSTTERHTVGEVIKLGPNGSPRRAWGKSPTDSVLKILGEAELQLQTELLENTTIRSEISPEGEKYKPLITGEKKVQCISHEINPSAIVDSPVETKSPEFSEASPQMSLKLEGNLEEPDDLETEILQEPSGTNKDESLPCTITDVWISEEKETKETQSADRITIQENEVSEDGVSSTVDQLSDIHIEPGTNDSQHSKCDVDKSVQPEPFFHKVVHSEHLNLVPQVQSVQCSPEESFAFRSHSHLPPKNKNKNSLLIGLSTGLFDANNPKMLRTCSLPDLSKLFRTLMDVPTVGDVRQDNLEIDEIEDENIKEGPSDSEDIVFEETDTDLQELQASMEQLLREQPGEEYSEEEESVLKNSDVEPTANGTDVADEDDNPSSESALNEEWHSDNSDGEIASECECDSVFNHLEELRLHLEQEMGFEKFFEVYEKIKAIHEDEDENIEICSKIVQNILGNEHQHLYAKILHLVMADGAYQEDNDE
Protocol: as §1

MAP3K1 = MAP3K1 (Homo sapiens (Human), UniProt Q13233)
Protocol: as §1

MAP2K6 = MAP2K6 (Homo sapiens (Human), UniProt P52564)
Protocol: as §1

[1] = tested on: RSK1 domain1, RSK2 domain1, RSK3 domain1
Protocol: as §1

PIP4K2C = PIP4K2C (Homo sapiens (Human), UniProt Q8TBX8)
Protocol: as §1

AurA = AurA (Homo sapiens (Human), UniProt O14965)
Sequence of AurA (O14965 whole entry): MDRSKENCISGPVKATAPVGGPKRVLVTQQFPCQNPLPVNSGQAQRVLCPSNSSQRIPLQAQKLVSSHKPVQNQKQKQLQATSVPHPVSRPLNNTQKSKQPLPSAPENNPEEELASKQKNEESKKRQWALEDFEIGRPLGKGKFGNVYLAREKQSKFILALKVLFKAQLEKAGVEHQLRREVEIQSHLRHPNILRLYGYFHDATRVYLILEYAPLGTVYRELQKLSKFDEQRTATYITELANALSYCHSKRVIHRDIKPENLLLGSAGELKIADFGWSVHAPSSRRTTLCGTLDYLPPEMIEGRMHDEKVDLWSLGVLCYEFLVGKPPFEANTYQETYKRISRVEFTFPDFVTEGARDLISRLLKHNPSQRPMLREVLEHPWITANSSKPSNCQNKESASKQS
Protocol: as §1

ZAK = ZAK (Homo sapiens (Human), UniProt Q9NYL2)
Protocol: as §1

GSK3A = GSK3A (Homo sapiens (Human), UniProt P49840)
Sequence of GSK3A (P49840 whole entry): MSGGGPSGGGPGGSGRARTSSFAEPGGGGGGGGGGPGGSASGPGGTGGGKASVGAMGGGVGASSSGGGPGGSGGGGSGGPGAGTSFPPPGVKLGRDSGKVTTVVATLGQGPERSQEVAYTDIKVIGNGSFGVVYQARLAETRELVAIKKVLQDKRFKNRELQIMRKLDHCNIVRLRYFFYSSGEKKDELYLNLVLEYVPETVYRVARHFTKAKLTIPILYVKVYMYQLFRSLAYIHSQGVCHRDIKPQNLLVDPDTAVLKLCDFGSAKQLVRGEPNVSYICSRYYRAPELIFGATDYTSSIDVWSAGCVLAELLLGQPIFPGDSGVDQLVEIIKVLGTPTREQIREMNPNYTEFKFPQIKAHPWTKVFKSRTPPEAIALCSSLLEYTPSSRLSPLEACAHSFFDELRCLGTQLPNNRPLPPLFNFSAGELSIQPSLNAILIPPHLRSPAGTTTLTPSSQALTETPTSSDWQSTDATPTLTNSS
Protocol: as §1

[2] = range class, read-out: % inhibition

Sequence of MAP2K3 (P46734 whole entry): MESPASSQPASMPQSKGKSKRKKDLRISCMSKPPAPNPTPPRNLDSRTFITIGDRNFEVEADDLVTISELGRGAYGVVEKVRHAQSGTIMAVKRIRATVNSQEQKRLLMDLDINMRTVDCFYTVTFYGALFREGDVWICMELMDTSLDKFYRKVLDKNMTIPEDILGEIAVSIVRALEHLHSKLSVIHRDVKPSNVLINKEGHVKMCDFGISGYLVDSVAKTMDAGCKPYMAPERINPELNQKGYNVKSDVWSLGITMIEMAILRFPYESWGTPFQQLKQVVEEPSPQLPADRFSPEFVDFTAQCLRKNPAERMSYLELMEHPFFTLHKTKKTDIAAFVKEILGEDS

With `COc1cc(NS(=O)(=O)C2CC2)ccc1-c1cnc(N)c(-c2ccc3c(c2)CCNC3=O)c1` [Compound I-50, N-(4-(6-amino-5-(1-oxo-1,2,3,4-tetrahydroisoquinolin-6-yl)pyridin-3-yl)-3-methoxyphenyl) cyclopropanesulfonamide] the inhibition at 10 µM (MAP2K3; [2]) was 0%, the inhibition at 10 µM (MAP2K3; read-out: inhibition (10 μM)) was -5.7% and the inhibition at 10 µM (CHK1; [2]) was 0%. The inhibition at 10 µM (CHK1; read-out: inhibition (10 μM)) was -9.6%, the inhibition at 10 µM (PHKg2; [2]) was 0% and the inhibition at 10 µM (PHKg2; read-out: inhibition (10 μM)) was -38.6%. The inhibition at 10 µM (OSR1; [2]) was 0%, the inhibition at 10 µM (OSR1; read-out: inhibition (10 μM)) was 16.6% and the inhibition at 10 µM (PIK3C3; [2]) was 0%. The inhibition at 10 µM (PIK3C3; read-out: inhibition (10 μM)) was -32.5%, the inhibition at 10 µM (IRAK1; [2]) was 50 to 75% and the inhibition at 10 µM (IRAK1; read-out: inhibition (10 μM)) was 51.2%. The inhibition at 10 µM (ILK; [2]) was 0%, the inhibition at 10 µM (ILK; read-out: inhibition (10 μM)) was -18.8% and the inhibition at 10 µM (LOK; [2]) was greater than 90%. For the same compound, the inhibition at 10 µM (LOK; read-out: inhibition (10 μM)) was 91.6%, the inhibition at 10 µM (MAP2K1; [2]) was 0% and the inhibition at 10 µM (MAP2K1; read-out: inhibition (10 μM)) was 17.8%. For the same compound, the inhibition at 10 µM (TYK2 domain2; [2]) was 0%, the inhibition at 10 µM (TYK2 domain2; read-out: inhibition (10 μM)) was -21% and the “% inhibition” value (PI4KA, PI4KAP2; 10 μM, range class) was 0.0%. The “inhibition (10 μM)” value (PI4KA, PI4KAP2) was 24.7%, the “% inhibition” value (JNK1, JNK2, JNK3; 10 μM, range class) was 0.0% and the “inhibition (10 μM)” value (JNK1, JNK2, JNK3) was 26.8%. It also gave an inhibition at 10 µM (MAST3; [2]) of 0%, an inhibition at 10 µM (MAST3; read-out: inhibition (10 μM)) of -0.5% and an inhibition at 10 µM (EphB2; [2]) of 0%. The inhibition at 10 µM (EphB2; read-out: inhibition (10 μM)) was 8.2%, the inhibition at 10 µM (KHS1; [2]) was 75 to 90% and the inhibition at 10 µM (KHS1; read-out: inhibition (10 μM)) was 77.8%. For the same compound, the inhibition at 10 µM (MARK4; [2]) was 0%, the inhibition at 10 µM (MARK4; read-out: inhibition (10 μM)) was 6.8% and the “% inhibition” value (MAPKAPK2, MAPKAPK3; 10 μM, range class) was 0.0%. The “inhibition (10 μM)” value (MAPKAPK2, MAPKAPK3) was −34.3%, the inhibition at 10 µM (JAK1 domain2; [2]) was 0% and the inhibition at 10 µM (JAK1 domain2; read-out: inhibition (10 μM)) was -23.3%. It also gave an inhibition at 10 µM (ATR; [2]) of 0%, an inhibition at 10 µM (ATR; read-out: inhibition (10 μM)) of 17.1% and an inhibition at 10 µM (PI4KB; [2]) of 0%. The inhibition at 10 µM (PI4KB; read-out: inhibition (10 μM)) was 0%, the inhibition at 10 µM (NDR2; [2]) was 0% and the inhibition at 10 µM (NDR2; read-out: inhibition (10 μM)) was 4.5%. For the same compound, the inhibition at 10 µM (CHK2; [2]) was 0%, the inhibition at 10 µM (CHK2; read-out: inhibition (10 μM)) was 19.3% and the inhibition at 10 µM (NEK8; [2]) was 0%. For the same compound, the inhibition at 10 µM (NEK8; read-out: inhibition (10 μM)) was -8.1%, the inhibition at 10 µM (NDR1; [2]) was 0% and the inhibition at 10 µM (NDR1; read-out: inhibition (10 μM)) was 20.2%. It also gave an inhibition at 10 µM (MAP2K7; [2]) of 0%, an inhibition at 10 µM (MAP2K7; read-out: inhibition (10 μM)) of 16.4% and an inhibition at 10 µM (NEK1; [2]) of 0%. The inhibition at 10 µM (NEK1; read-out: inhibition (10 μM)) was 16.8%, the inhibition at 10 µM (MAP3K1; [2]) was 75 to 90% and the inhibition at 10 µM (MAP3K1; read-out: inhibition (10 μM)) was 86.7%. The inhibition at 10 µM (MAP2K6; [2]) was 0%, the inhibition at 10 µM (MAP2K6; read-out: inhibition (10 μM)) was 10.9% and the “% inhibition” value ([1]; 10 μM, range class) was 0.0%. The “inhibition (10 μM)” value [1] was 15.8%, the inhibition at 10 µM (PIP4K2C; [2]) was greater than 90% and the inhibition at 10 µM (PIP4K2C; read-out: inhibition (10 μM)) was 90.6%. For the same compound, the “inhibition (10 μM)” value (AurA) was 11.9%, the inhibition at 10 µM (AurA; [2]) was 0% and the inhibition at 10 µM (AurA; read-out: inhibition (10 μM)) was 18%. It also gave an inhibition at 10 µM (ZAK; [2]) of 0%, an inhibition at 10 µM (ZAK; read-out: inhibition (10 μM)) of 6.6% and an inhibition at 10 µM (GSK3A; [2]) of 75 to 90%. For the same compound, the inhibition at 10 µM (GSK3A; read-out: inhibition (10 μM)) was 77.4%.

Reference: patent publication US10710978B2, “STK4 inhibitors for treatment of hematologic malignancies” (Dana-Farber Cancer Institute, Inc., priority 2015, dated 2020)
